Values quoted from earlier work in patent publication US20140271893A1 (McNeil-PPC, Inc., priority 2013, published 2014).

Tests used:
[1] = therapeutic dose
[2] = 30 mg dose administered orally over eight hours

fraction of dose excreted unchanged in the urine [1] | metabolized to m-hydroxy-phenylglycol-sulfate, % of the dose [2] [%] | metabolized to m-hydroxymandelic acid, % of the dose [2] [%] | metabolized to phenylephrine-glucuronide, % of the dose [2] [%] | metabolized to phenylephrine-sulfate, % of the dose [2] [%] | SMILES
Less than 9% |  |  |  |  | CC(=O)Nc1ccc(O)cc1 [acetaminophen]
 | 6 | 30 | 12 | 47 | CNC[C@H](O)c1cccc(O)c1 [phenylephrine, (R)-1-(3-hydroxyphenyl)-2-methylaminoethanol]
